In PubChem BioAssay AID312 (DTP/NCI, 2004) one finds T/C data, which are given here for 23 molecules.

Several values for one entry are separate records, joined by “and”; a condition that tells them apart may be missing. Equal values may be shown once. Inconclusive results and toxic doses are left out.

In this test the test system is BDF1 mice, C1498 leukemia ip, median survival T/C. As to the kind of experiment: NCI In Vivo Anticancer Drug Screen. Data for tumor model C1498 Myeloid Leukemia (intraperitoneal) in B6D2F1 (BDF1) mice. The conditions noted are these: endpoint: median survival time, higher = longer survival. The method, then:
The antitumor activity of compounds was measured in mice bearing transplantable tumors. Survival or tumor size were measured and the results are expressed as the measurement made in the treated group (T) divided by the measurement made in the vehicle treated control group (C). The tumor model used in this assay is C1498 Myeloid Leukemia (intraperitoneal) in B6D2F1 (BDF1) mice

Setting [1] is: dose: 31.3 mg/kg/injection, schedule: Q01DX010 (ip), vehicle: saline.
[2] abbreviates: dose: 62.5 mg/kg/injection, schedule: Q01DX010 (ip), vehicle: saline.
Setting [3] is: dose: 125.0 mg/kg/injection, schedule: Q01DX010 (ip), vehicle: saline.
Where [4] appears, read: dose: 25.0 mg/kg/injection, schedule: Q01DX010 (ip), vehicle: saline.
Where [5] appears, read: dose: 50.0 mg/kg/injection, schedule: Q01DX010 (ip), vehicle: saline.
[6] abbreviates: dose: 100.0 mg/kg/injection, schedule: Q01DX010 (ip), vehicle: saline.
Where [7] appears, read: dose: 200.0 mg/kg/injection, schedule: Q01DX010 (ip), vehicle: saline.
The mark [8] stands for this setting: dose: 5.0 mg/kg/injection, schedule: Q01DX010 (ip), vehicle: saline.
Where [9] appears, read: dose: 10.0 mg/kg/injection, schedule: Q01DX010 (ip), vehicle: saline.
Setting [10] is: dose: 20.0 mg/kg/injection, schedule: Q01DX010 (ip), vehicle: saline.
Where [11] appears, read: dose: 40.0 mg/kg/injection, schedule: Q01DX010 (ip), vehicle: saline.
Where [12] appears, read: dose: 12.5 mg/kg/injection, schedule: Q01DX010 (sc), vehicle: steriod suspending solution.
[13] abbreviates: dose: 25.0 mg/kg/injection, schedule: Q01DX010 (sc), vehicle: steriod suspending solution.
Where [14] appears, read: dose: 50.0 mg/kg/injection, schedule: Q01DX010 (sc), vehicle: steriod suspending solution.
Setting [15] is: dose: 100.0 mg/kg/injection, schedule: Q01DX010 (sc), vehicle: steriod suspending solution.
Setting [16] is: dose: 1.25 mg/kg/injection, schedule: Q01DX010 (ip), vehicle: saline.
The mark [17] stands for this setting: dose: 2.5 mg/kg/injection, schedule: Q01DX010 (ip), vehicle: saline.
Setting [18] is: dose: 1.25 mg/kg/injection, schedule: Q01DX010 (ip), vehicle: other.
Setting [19] is: dose: 2.5 mg/kg/injection, schedule: Q01DX010 (ip), vehicle: other.
The mark [20] stands for this setting: dose: 5.0 mg/kg/injection, schedule: Q01DX010 (ip), vehicle: other.
Where [21] appears, read: dose: 10.0 mg/kg/injection, schedule: Q01DX010 (ip), vehicle: other.
The mark [22] stands for this setting: dose: 4.0 mg/kg/injection, schedule: Q01DX010 (ip), vehicle: saline.
[23] abbreviates: dose: 8.0 mg/kg/injection, schedule: Q01DX010 (ip), vehicle: saline.
Setting [24] is: dose: 16.0 mg/kg/injection, schedule: Q01DX010 (ip), vehicle: saline.
Setting [25] is: dose: 32.0 mg/kg/injection, schedule: Q01DX010 (ip), vehicle: saline.

`CCn1cnc2c(=S)nc[nH]c21`: the T/C reads like this: (dose: 15.6 mg/kg/injection, schedule: Q01DX010 (ip), vehicle: saline) 105 % of control; under setting [1], 100 % of control; under setting [2], 105 % of control; under setting [3], 105 % of control.
For `CC(=O)Nc1ccc2nc3ccc(NC(C)=O)cc3[n+](-c3ccccc3)c2c1`, the T/C by setting is: under setting [4], 107 % of control; under setting [5], 96 % of control; under setting [6], 88 % of control; under setting [7], 88 % of control.
Regarding `COc1cc(-c2ccc(Nc3ccccc3C(=O)O)c(OC)c2)ccc1N`, the T/C was 100 % of control under setting [8]; 95 % of control and 100 % of control under setting [9]; 100 % of control and 105 % of control under setting [10]; 118 % of control under setting [11].
Consider `C[C@]12C=CC(=O)C=C1CC[C@@H]1[C@@H]2[C@@H](O)C[C@@]2(C)[C@H]1CC[C@]2(O)C(=O)CO`, for which the T/C under setting [12] is 92 % of control, the T/C under setting [13] was 88 % of control, the T/C under setting [14] is 92 % of control and the T/C under setting [15] was 92 % of control.
On to `CN(C)/N=N/c1nc[nH]c1C(N)=O`, for which the T/C under setting [4] was 108 % of control; the T/C under setting [5] is 112 % of control; the T/C under setting [6] was 158 % of control; the T/C under setting [7] was 158 % of control and 159 % of control; the T/C (dose: 400.0 mg/kg/injection, schedule: Q01DX010 (ip), vehicle: saline) was 118 % of control.
As for `CS(=O)(=O)OCCN(CCOS(C)(=O)=O)c1ccc(N=O)cc1`, for the setting “dose: 0.25 mg/kg/injection, schedule: Q01DX010 (ip), vehicle: saline”, the T/C was 122 % of control.
Take `CO[C@@H]1[C@@H](OC2OC(C)C(OC3CC(C)(O)C(OC(=O)CC(C)C)C(C)O3)C(N(C)C)C2O)[C@@H](CC=O)C[C@@H](C)C(=O)/C=C/C2O[C@H]2C[C@@H](C)OC(=O)C[C@H]1OC(C)=O` (some centres not stated): the T/C was 109 % of control and 91 % of control (dose: 37.5 mg/kg/injection, schedule: Q01DX010 (ip), vehicle: saline); 100 % of control and 91 % of control (dose: 75.0 mg/kg/injection, schedule: Q01DX010 (ip), vehicle: saline); 95 % of control and 90 % of control (dose: 150.0 mg/kg/injection, schedule: Q01DX010 (ip), vehicle: saline); 91 % of control and 90 % of control (dose: 300.0 mg/kg/injection, schedule: Q01DX010 (ip), vehicle: saline).
Regarding `CCCCCCCCCCCCCCCC(=O)OCC1OC(n2ccc(N)nc2=O)C(O)C1O` (configuration not stated), the T/C (dose: 125.0 mg/kg/injection, schedule: Q01DX001 (ip), vehicle: saline with Tween-80) was 153 % of control and 155 % of control; the T/C (dose: 150.0 mg/kg/injection, schedule: Q01DX001 (ip), vehicle: saline with Tween-80) was 151 % of control and 194 % of control.
`CCOC(N)=O`: the T/C is 95 % of control and 104 % of control under setting [3]; 95 % of control and 100 % of control (dose: 250.0 mg/kg/injection, schedule: Q01DX010 (ip), vehicle: saline); 95 % of control and 109 % of control (dose: 500.0 mg/kg/injection, schedule: Q01DX010 (ip), vehicle: saline).
`N#[N+]c1cnc([O-])[nH]c1=O`: the T/C was 100 % of control under setting [16], 122 % of control under setting [17], 113 % of control under setting [8] and 118 % of control under setting [9].
Consider `S=c1nc[nH]c2nc[nH]c12`, for which the T/C is, setting by setting: under setting [18], 104 % of control; under setting [19], 95 % of control; under setting [20], 109 % of control; under setting [21], 95 % of control.
Turning to `CC[C@]1(O)C[C@H]2CN(CCc3c([nH]c4ccccc34)[C@@](C(=O)OC)(c3cc4c(cc3OC)N(C=O)[C@H]3[C@@](O)(C(=O)OC)[C@H](OC(C)=O)[C@]5(CC)C=CCN6CC[C@]43[C@@H]65)C2)C1`, the T/C was 112 % of control (dose: 1.0 mg/kg/injection, schedule: Q04DX003 (ip), vehicle: saline); 115 % of control (dose: 1.5 mg/kg/injection, schedule: Q04DX003 (ip), vehicle: saline); 118 % of control (dose: 2.0 mg/kg/injection, schedule: Q04DX003 (ip), vehicle: saline).
On to `COc1cc2c(c3c1c(=O)c1ccccc1n3C)C=CC(C)(C)O2`, for which the T/C by setting is: (dose: 6.25 mg/kg/injection, schedule: Q01DX010 (ip), vehicle: other) 100 % of control; (dose: 12.5 mg/kg/injection, schedule: Q01DX010 (ip), vehicle: other) 107 % of control; (dose: 25.0 mg/kg/injection, schedule: Q01DX010 (ip), vehicle: other) 103 % of control; (dose: 50.0 mg/kg/injection, schedule: Q01DX010 (ip), vehicle: other) 119 % of control; (dose: 100.0 mg/kg/injection, schedule: Q01DX010 (ip), vehicle: other) 100 % of control.
On to `CC(CCC(C)OS(C)(=O)=O)OS(C)(=O)=O` (configuration not stated), for which the T/C is 109 % of control under setting [22], 95 % of control under setting [23], 100 % of control under setting [24] and 104 % of control under setting [25].
Turning to `NC(Cc1ccc(N(CCCl)CCCl)cc1)C(=O)O` (configuration not stated), the T/C reads like this: under setting [8], 173 % of control; under setting [9], 88 % of control.
For the molecule `COc1cc(C(=O)O)c2c(c1C)OC(=O)c1c(C)cc(O)c(C=O)c1O2`, the T/C was 100 % of control under setting [23], 108 % of control under setting [24] and 95 % of control under setting [25].
For the molecule `CCCSc1ncnc2nc[nH]c12`, the T/C is 100 % of control and 104 % of control under setting [1]; 100 % of control and 109 % of control under setting [2]; 104 % of control and 90 % of control under setting [3].
For the molecule `Nc1nc(=S)c2[nH]cnc2[nH]1`, the T/C reads like this: under setting [18], 104 % of control; under setting [19], 123 % of control; under setting [20], 104 % of control; under setting [21], 109 % of control; (dose: 27.0 mg/kg/injection, schedule: Q01DX001 (ip), vehicle: alkali diluted with saline) 97 % of control; (dose: 40.0 mg/kg/injection, schedule: Q01DX001 (ip), vehicle: alkali diluted with saline) 101 % of control. The T/C was 112 % of control (dose: 60.0 mg/kg/injection, schedule: Q01DX001 (ip), vehicle: alkali diluted with saline) and 150 % of control (dose: 90.0 mg/kg/injection, schedule: Q01DX001 (ip), vehicle: alkali diluted with saline).
With `CC(=O)O[C@]1(C(C)=O)CC[C@H]2[C@@H]3C[C@H](C)C4=CC(=O)C=C[C@]4(C)[C@@]3(F)[C@@H](O)C[C@@]21C`, the T/C was 100 % of control under setting [12], 100 % of control under setting [13], 100 % of control under setting [14] and 100 % of control under setting [15].
`Cn1c(N)nc2nc[nH]c2c1=S`: the T/C is 100 % of control under setting [9]; 104 % of control under setting [10]; 109 % of control under setting [11]; 109 % of control (dose: 80.0 mg/kg/injection, schedule: Q01DX010 (ip), vehicle: saline).
Turning to `S=P(N1CCOCC1)(N1CC1)N1CC1`, the T/C is 95 % of control and 104 % of control under setting [17]; 95 % of control and 100 % of control under setting [8]; 100 % of control and 104 % of control under setting [9]; 104 % of control under setting [10].
As for `Nc1nc(F)nc2c1ncn2C1OC(CO)C(O)C1O` (configuration not stated), the T/C is 100 % of control (dose: 0.5 mg/kg/injection, schedule: Q01DX010 (ip), vehicle: saline); 100 % of control and 105 % of control and 108 % of control (dose: 1.0 mg/kg/injection, schedule: Q01DX010 (ip), vehicle: saline); 100 % of control and 105 % of control and 108 % of control (dose: 2.0 mg/kg/injection, schedule: Q01DX010 (ip), vehicle: saline); 100 % of control and 108 % of control and 110 % of control under setting [22].
Take `O=C(O)c1[nH]c(=O)[nH]c(=O)c1F`: the T/C runs as follows: under setting [16], 116 % of control and 118 % of control; under setting [17], 122 % of control; under setting [8], 158 % of control and 163 % of control; under setting [9], 95 % of control and 109 % of control.
